Measured values reported in ChEMBL document CHEMBL1201862, “PubChem BioAssay data set” (2004).
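Exposure lasted 48 hours, with cells grown in 96-well plates and compounds tested at five concentrations. GI50 is the concentration that inhibits growth by half.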 Calls of active or inactive are those of the source. Cut-off read from the data, not from the text of the source: active = GI50 up to about 1.1 µM and inactive = higher.

What was measured:
Experiment in all cases: NCI-60 cell line screen, 48 h
DLD-1 = tested on: DLD-1
DMS-273 = tested on: DMS-273
HOP-18 = tested on: HOP-18
LXFL 529 = tested on: LXFL 529
M19-MEL = tested on: M19-MEL
XF498 = tested on: XF498
DMS-114 = tested on: DMS-114
RXF 631 = tested on: RXF 631
SNB-78 = tested on: SNB-78

Measured: GI50

N#C/C(=C\c1c[nH]c2ccccc12)C(=O)c1ccc(O)c(O)c1
inactive: DLD-1 47.9 µM | DMS-273 36.2 µM | HOP-18 38.5 µM | LXFL 529 39.4 µM | M19-MEL 83.2 µM | XF498 48.8 µM

CC(=O)C1=C(C)Cn2c(=O)c3ccccc3c(=O)n2C1
inactive: DLD-1 > 100 µM | DMS-114 > 100 µM | DMS-273 > 100 µM | LXFL 529 > 100 µM | M19-MEL > 100 µM | RXF 631 > 100 µM

N#C/C(=C\c1cc2ccccc2c2ccccc12)c1ccccc1
inactive: DLD-1 5.6 µM | DMS-273 3.05 µM | HOP-18 18.7 µM | LXFL 529 14.4 µM | M19-MEL 7.29 µM | SNB-78 4.06 µM | XF498 3.22 µM

Cn1cc(C(=O)NCCC(=N)N)cc1NC(=O)C1=[N+](C)C=C(NC(=O)c2cccc(C(=O)NC3=CC(C(=O)Nc4cc(C(=O)NCCC(=N)N)cn4C)=[N+](C)C3)c2)C1
inactive: DLD-1 > 100 µM | DMS-114 70.6 µM | DMS-273 59.8 µM | HOP-18 > 100 µM | LXFL 529 > 100 µM | M19-MEL > 100 µM | XF498 > 100 µM

Cc1ccc(S(=O)(=O)c2ccc(NC(=O)SCCC(=O)O)cc2)cc1
inactive: DLD-1 > 100 µM | DMS-114 > 100 µM | DMS-273 > 100 µM | LXFL 529 > 100 µM | SNB-78 > 100 µM

Cc1cccc(C)c1NC(=O)C(=O)CC(=O)c1cccc([N+](=O)[O-])c1
inactive: DLD-1 > 100 µM | DMS-273 > 100 µM | HOP-18 > 100 µM | LXFL 529 > 100 µM | M19-MEL > 100 µM | SNB-78 > 100 µM | XF498 > 100 µM

COc1ccc(C2c3cc4c(cc3OC(O)(CO)C2C(=O)O)OCO4)c(OC)c1OC.COc1ccc(C2c3cc4c(cc3OC3(O)COC(=O)C23)OCO4)c(OC)c1OC (configuration not stated)
inactive: DLD-1 > 100 µM | DMS-114 > 100 µM | DMS-273 > 100 µM | HOP-18 > 100 µM | M19-MEL > 100 µM | SNB-78 59.2 µM | XF498 > 100 µM

Nc1nc2c(ncn2C2OC(CO)C(O)C2N)c(=O)[nH]1 (configuration not stated)
inactive: DLD-1 > 100 µM | DMS-114 > 100 µM | DMS-273 > 100 µM | LXFL 529 > 100 µM | M19-MEL > 100 µM | RXF 631 79.6 µM | SNB-78 > 100 µM | XF498 > 100 µM

COc1ccc(S(=O)(=O)NNS(C)(=O)=O)cc1
inactive: DLD-1 87.5 µM | DMS-114 > 100 µM | DMS-273 > 100 µM | LXFL 529 > 100 µM | M19-MEL > 100 µM | RXF 631 > 100 µM | XF498 60.3 µM

CC(Oc1ccc2c(=O)cc(-c3ccccc3)oc2c1)C(=O)O (configuration not stated)
inactive: DLD-1 > 100 µM | DMS-114 > 100 µM | HOP-18 > 100 µM | LXFL 529 > 100 µM | M19-MEL > 100 µM | SNB-78 > 100 µM | XF498 > 100 µM

COc1ccc([C@@H]2OC(=O)C3C2C(=O)O[C@H]3c2ccc(OC)c(OC)c2)cc1OC (some centres not stated)
inactive: DMS-114 > 100 µM | DMS-273 > 100 µM | HOP-18 > 100 µM | M19-MEL > 100 µM | RXF 631 > 100 µM | SNB-78 > 100 µM | XF498 > 100 µM

CCOC(=O)C1=C(C(=O)OCC)C2c3ccccc3C=CN2C(C(=O)OCC)=C(SC)S1 (configuration not stated)
inactive: DLD-1 > 100 µM | DMS-114 52.5 µM | DMS-273 63.1 µM | LXFL 529 51.2 µM | M19-MEL > 100 µM | SNB-78 79.1 µM

Cn1ncc2c(c1=O)Nc1ccccc1S2(=O)=O
inactive: DLD-1 > 100 µM | DMS-114 22 µM | DMS-273 > 100 µM | HOP-18 > 100 µM | LXFL 529 80.4 µM | M19-MEL > 100 µM | SNB-78 > 100 µM

COc1ccc(NC(=O)COC(=O)c2cccc3c(=O)c4ccccc4[nH]c23)cc1
inactive: DLD-1 13.9 µM | DMS-114 17.2 µM | HOP-18 27 µM | LXFL 529 17.3 µM | M19-MEL 19.2 µM | SNB-78 22.1 µM | XF498 19.9 µM

Cc1ccc(C)c(N2C(=O)C(=O)C(c3nc4ccccc4s3)C(=O)C2=O)c1
inactive: DLD-1 > 100 µM | DMS-114 > 100 µM | DMS-273 > 100 µM | LXFL 529 > 100 µM | M19-MEL > 100 µM | SNB-78 > 100 µM

CNC(=S)OCCC(C)CCCC(C)C (configuration not stated)
inactive: DLD-1 15.5 µM | DMS-273 16.8 µM | HOP-18 15.3 µM | LXFL 529 15.8 µM | M19-MEL 19.3 µM | SNB-78 18.8 µM | XF498 17 µM

COc1ccc(CC(=O)c2cc(OC)c(OC)cc2C)cc1OC
inactive: DLD-1 > 100 µM | DMS-114 14.7 µM | LXFL 529 24.8 µM | M19-MEL 37.6 µM | SNB-78 > 100 µM | XF498 25.5 µM

O=C(N/N=C(/c1nc2ccc(Cl)cc2[nH]c1=O)C(O)c1ccc(Cl)cc1Cl)c1ccncc1 (configuration not stated)
inactive: DLD-1 > 100 µM | DMS-114 > 100 µM | DMS-273 > 100 µM | LXFL 529 > 100 µM | M19-MEL > 100 µM | RXF 631 > 100 µM | SNB-78 > 100 µM

CC(=O)Nc1ccc(-c2nnc(SCC(=O)Nc3ccc(C)cc3)o2)cc1
inactive: DLD-1 14.9 µM | DMS-114 14.8 µM | DMS-273 15.9 µM | HOP-18 17.4 µM | LXFL 529 16.3 µM | M19-MEL 17.6 µM | SNB-78 16.6 µM
